The results in this text go back to ChEMBL document CHEMBL1127134, “Synthesis and antibacterial activity of (1R,5R,6R)-2-tert-butyl-6-(1-hydroxyethyl)oxapenem-3-carboxylic acid” (1993).

The structures appear in SMILES notation. Values after ≈ are worked out from the molar mass of the structure shown.

Assay type in all cases: functional
Experiment [1] has as its system Bacteroides thetaiotaomicron. In words: Minimum inhibitory concentration required for the antibacterial activity against Bacillus thetaiotaomicron 235 Munchen.
In experiment [2] the test system is Bacteroides thetaiotaomicron. In words: Minimum inhibitory concentration required for the antibacterial activity against Bacillus thetaiotaomicron DSM 2079.
Experiment [3] concerns Peptostreptococcus anaerobius. In words: Minimum inhibitory concentration required for the antibacterial activity against Peptostrept. anaer. DSM 20357.
Experiment [4] has as its system Clostridium perfringens. In words: Minimum inhibitory concentration required for the antibacterial activity against Clostridium perfringens 24072.
Experiment [5] concerns Clostridium perfringens. In words: Minimum inhibitory concentration required for the antibacterial activity against Clostridium perfringens DSM 756.
The next experiment deals with Anaerococcus prevotii. In words: Minimum inhibitory concentration required for the antibacterial activity against Peptococcus prevotii DSM 20548.
In experiment [6] the test system is Clostridium perfringens. In words: Minimum inhibitory concentration required for the antibacterial activity against Clostridium perfringens 1024027.
Experiment [7] deals with Parabacteroides distasonis. In words: Minimum inhibitory concentration required for the antibacterial activity against Bacillus distasonis Heidelberg.
In experiment [8] the test system is Bacteroides fragilis. In words: Minimum inhibitory concentration required for the antibacterial activity against Bacillus fragilis DSM 2151.
The test system of experiment [9] is Bacteroides fragilis. In words: Minimum inhibitory concentration required for the antibacterial activity against Bacillus fragilis 010848.
In experiment [10] the test system is Peptostreptococcus anaerobius. In words: Minimum inhibitory concentration required for the antibacterial activity against Peptostrept. anaer. 222 I/82.
Another experiment deals with Fusobacterium nucleatum. In words: Minimum inhibitory concentration required for the antibacterial activity against Fusobacterium nucleatum DSM 20482.
Experiment [11] relates to Bacteroides fragilis. In words: Minimum inhibitory concentration required for the antibacterial activity against Bacillus fragilis 06688.
In experiment [12] the test system is Fusobacterium necrophorum. In words: Minimum inhibitory concentration required for the antibacterial activity against Sphaerophorus necrophorus Kr.
Experiment [13] has as its system Prevotella melaninogenica. In words: Minimum inhibitory concentration required for the antibacterial activity against Bacillus melaninogenicus Kr.
Experiment [14] concerns Peptostreptococcus anaerobius. In words: Minimum inhibitory concentration required for the antibacterial activity against Peptostrept. anaer. Kr II.
Experiment [15] concerns Bacteroides fragilis. In words: Minimum inhibitory concentration required for the antibacterial activity against Bacillus fragilis L 1168 Italien.
The test system of experiment [16] is Peptoniphilus asaccharolyticus. In words: Minimum inhibitory concentration required for the antibacterial activity against Peptococcus asacchar. DSM 20463.
The subject of experiment [17] is Bacteroides fragilis. In words: Minimum inhibitory concentration required for the antibacterial activity against Bacillus fragilis GA I - 0558 Japan.
Another experiment relates to Clostridium sporogenes. In words: Minimum inhibitory concentration required for the antibacterial activity against Clostridium sporogenes.
Experiment [18] relates to Bacteroides fragilis. In words: Minimum inhibitory concentration required for the antibacterial activity against Bacillus fragilis 4661 Kr.
The test system of another experiment is Clostridium butyricum. In words: Minimum inhibitory concentration required for the antibacterial activity against Clostridium butyricum.
In experiment [19] the test system is Bacteroides fragilis. In words: Minimum inhibitory concentration required for the antibacterial activity against Bacillus fragilis Kr 1 TV.
A further experiment concerns Clostridium septicum. In words: Minimum inhibitory concentration required for the antibacterial activity against Clostridium septicum.
Experiment [20] relates to Bacteroides fragilis. In words: Minimum inhibitory concentration required for the antibacterial activity against Bacillus fragilis 4891/91 Kr.
The subject of experiment [21] is Clostridium perfringens. In words: Minimum inhibitory concentration required for the antibacterial activity against Clostridium perfringens 24071.
Experiment [22] concerns Bacteroides fragilis. In words: Minimum inhibitory concentration required for the antibacterial activity against Bacillus fragilis Kr II.
The subject of experiment [23] is Peptostreptococcus anaerobius. In words: Minimum inhibitory concentration required for the antibacterial activity against Peptostrept. anaer. Kr I.
For experiment [24], the system named is Prevotella melaninogenica. In words: Minimum inhibitory concentration required for the antibacterial activity against Bacillus melaninogenicus Heidelberg.
Experiment [25] concerns Parabacteroides distasonis. In words: Minimum inhibitory concentration required for the antibacterial activity against Bacillus distasonis Kr.
The next experiment concerns Thomasclavelia ramosa. In words: Minimum inhibitory concentration required for the antibacterial activity against Clostridium ramosum DSM 1402.
Experiment [26] concerns Bacteroides fragilis. In words: Minimum inhibitory concentration required for the antibacterial activity against Bacillus fragilis ES 25.
A further experiment relates to Phocaeicola vulgatus. In words: Minimum inhibitory concentration required for the antibacterial activity against Bacillus valgatus Kr III.
For experiment [27], the system named is Bacteroides fragilis. In words: Minimum inhibitory concentration required for the antibacterial activity against Bacillus fragilis 1560 I/82.
The test system of experiment [28] is Bacteroides fragilis. In words: Minimum inhibitory concentration required for the antibacterial activity against Bacillus fragilis 2034/35 Kr 43.
In experiment [29] the test system is Staphylococcus aureus. In words: Minimum inhibitory concentration required for the antibacterial activity against Staphylococcus aureus 25768.
In experiment [30] the test system is Staphylococcus aureus. In words: Minimum inhibitory concentration required for the antibacterial activity against Staphylococcus aureus 25464.
Experiment [31] concerns Staphylococcus aureus. In words: Minimum inhibitory concentration required for the antibacterial activity against Staphylococcus aureus 25463.
Experiment [32] has as its system Staphylococcus aureus. In words: Minimum inhibitory concentration required for the antibacterial activity against Staphylococcus aureus 41h Belgium.
Experiment [33] concerns Staphylococcus aureus. In words: Minimum inhibitory concentration required for the antibacterial activity against Staphylococcus aureus 79B Innsbruck.
The subject of experiment [34] is Staphylococcus aureus. In words: Minimum inhibitory concentration required for the antibacterial activity against Staphylococcus aureus 86 Innsbruck.
In experiment [35] the test system is Staphylococcus aureus. In words: Minimum inhibitory concentration required for the antibacterial activity against Staphylococcus aureus 13N Munchen.
The test system of experiment [36] is Staphylococcus aureus. In words: Minimum inhibitory concentration required for the antibacterial activity against Staphylococcus aureus 48N Munchen.
Experiment [37] concerns Staphylococcus aureus. In words: Minimum inhibitory concentration required for the antibacterial activity against Staphylococcus aureus 21b Belgium.
The test system of experiment [38] is Staphylococcus aureus. In words: Minimum inhibitory concentration required for the antibacterial activity against Staphylococcus aureus 1756. As to conditions: Staphylococcus aureus; read-out: MIC.
Experiment [39] has as its system Staphylococcus aureus. In words: Minimum inhibitory concentration required for the antibacterial activity against Staphylococcus aureus 77 Innsbruck.
In experiment [40] the test system is Staphylococcus aureus. In words: Minimum inhibitory concentration required for the antibacterial activity against Staphylococcus aureus 25470.
Experiment [41] concerns Staphylococcus aureus. In words: Minimum inhibitory concentration required for the antibacterial activity against Staphylococcus aureus 4978 Israel.
The test system of experiment [42] is Staphylococcus aureus. In words: Minimum inhibitory concentration required for the antibacterial activity against Staphylococcus aureus 25085.
The subject of experiment [43] is Staphylococcus aureus. In words: Minimum inhibitory concentration required for the antibacterial activity against Staphylococcus aureus 17N Munchen.
Experiment [44] relates to Staphylococcus aureus. In words: Minimum inhibitory concentration required for the antibacterial activity against Staphylococcus aureus 90 Innsbruck.
The subject of experiment [45] is Staphylococcus aureus. In words: Minimum inhibitory concentration required for the antibacterial activity against Staphylococcus aureus 25697.
For experiment [46], the system named is Staphylococcus aureus. In words: Minimum inhibitory concentration for the antibacterial activity against Staphylococcus aureus 48N Munchen.

A word on the MIC: it is the least concentration at which growth counts as inhibited. As to `CO/N=C(\C(=O)N[C@@H]1C(=O)N2C(C(=O)O)=C(COC(C)=O)CS[C@H]12)c1csc(N)n1` [CEFOTAXIME], the MIC in [1] is 128 µg/mL (≈ 281 µM); in experiment [2] it was 128 µg/mL (≈ 281 µM); in experiment [3] it was 16 µg/mL (≈ 35.1 µM); against Clostridium perfringens [4] it was 0.5 µg/mL (≈ 1.1 µM); in the experiment on Clostridium perfringens [5] it was not above 0.25 µg/mL; in the experiment with Anaerococcus prevotii, 8 µg/mL (≈ 17.6 µM). For the same compound, the MIC with Clostridium perfringens [6] was not above 0.25 µg/mL; in experiment [7], 2 µg/mL (≈ 4.39 µM); with Bacteroides fragilis [8] it was 4 µg/mL (≈ 8.78 µM); against Bacteroides fragilis [9], 16 µg/mL (≈ 35.1 µM); in [10], 0.5 µg/mL (≈ 1.1 µM); against Fusobacterium nucleatum it was 0.5 µg/mL (≈ 1.1 µM). Further, the MIC is 2 µg/mL (≈ 4.39 µM) against Bacteroides fragilis [11]; 1 µg/mL (≈ 2.2 µM) in experiment [12]; 2 µg/mL (≈ 4.39 µM) in [13]; not above 0.25 µg/mL in experiment [14]; 4 µg/mL (≈ 8.78 µM) in the experiment with Bacteroides fragilis [15]; not above 0.25 µg/mL in experiment [16]. For the same compound, the minimal inhibitory concentration (MIC) in the experiment with Bacteroides fragilis [17] turned out to be 8 µg/mL (≈ 17.6 µM); with Clostridium sporogenes, 0.5 µg/mL (≈ 1.1 µM); with Bacteroides fragilis [18], 4 µg/mL (≈ 8.78 µM); with Clostridium butyricum it was 1 µg/mL (≈ 2.2 µM); in the experiment with Bacteroides fragilis [19], 1 µg/mL (≈ 2.2 µM); with Clostridium septicum, 128 µg/mL (≈ 281 µM). The MIC was determined as 4 µg/mL (≈ 8.78 µM) with Bacteroides fragilis [20]; 2 µg/mL (≈ 4.39 µM) against Clostridium perfringens [21]; 2 µg/mL (≈ 4.39 µM) in the experiment with Bacteroides fragilis [22]; 32 µg/mL (≈ 70.3 µM) in [23]; 2 µg/mL (≈ 4.39 µM) in experiment [24]; 2 µg/mL (≈ 4.39 µM) in [25]. Also, the MIC against Thomasclavelia ramosa is 2 µg/mL (≈ 4.39 µM); against Bacteroides fragilis [26] it was 4 µg/mL (≈ 8.78 µM); against Phocaeicola vulgatus it was 2 µg/mL (≈ 4.39 µM); against Bacteroides fragilis [27] it was 2 µg/mL (≈ 4.39 µM); with Bacteroides fragilis [28], more than 128 µg/mL.

For `Cc1onc(-c2ccccc2)c1C(=O)N[C@@H]1C(=O)N2[C@@H]1SC(C)(C)[C@@H]2C(=O)O` [OXACILLIN], the MIC against Staphylococcus aureus [29] is 6.25 µg/mL (≈ 15.6 µM); in the experiment with Staphylococcus aureus [30] it was more than 100 µg/mL; against Staphylococcus aureus [31], 1.56 µg/mL (≈ 3.89 µM); in the experiment on Staphylococcus aureus [32], more than 100 µg/mL; in the experiment with Staphylococcus aureus [33], 50 µg/mL (≈ 125 µM); against Staphylococcus aureus [34], 100 µg/mL (≈ 249 µM). Moreover, the MIC is more than 100 µg/mL in the experiment on Staphylococcus aureus [35]; not above 0.78 µg/mL against Staphylococcus aureus [36]; more than 100 µg/mL against Staphylococcus aureus [37]; 50 µg/mL (≈ 125 µM) in the experiment with Staphylococcus aureus [38]; 100 µg/mL (≈ 249 µM) in the experiment with Staphylococcus aureus [39]; 100 µg/mL (≈ 249 µM) in the experiment with Staphylococcus aureus [40]. The MIC with Staphylococcus aureus [41] was not above 0.78 µg/mL; in the experiment with Staphylococcus aureus [42] it was 3.12 µg/mL (≈ 7.77 µM); in the experiment on Staphylococcus aureus [43], 1.56 µg/mL (≈ 3.89 µM); in the experiment with Staphylococcus aureus [44], more than 100 µg/mL; in the experiment with Staphylococcus aureus [45], 1.56 µg/mL (≈ 3.89 µM).

For `CO[C@@]1(NC(=O)Cc2cccs2)C(=O)N2C(C(=O)O)=C(COC(N)=O)CS[C@@H]21` [CEFOXITIN], the MIC in the experiment with Staphylococcus aureus [29] was found to be 12.5 µg/mL (≈ 29.2 µM); with Staphylococcus aureus [30], 50 µg/mL (≈ 117 µM); in the experiment on Staphylococcus aureus [31], 1.56 µg/mL (≈ 3.65 µM); with Staphylococcus aureus [32], 1.56 µg/mL (≈ 3.65 µM); with Staphylococcus aureus [33], 25 µg/mL (≈ 58.5 µM); in the experiment with Staphylococcus aureus [34], 12.5 µg/mL (≈ 29.2 µM). For the same compound, the minimal inhibitory concentration (MIC) is more than 100 µg/mL with Staphylococcus aureus [35]; 6.25 µg/mL (≈ 14.6 µM) against Staphylococcus aureus [36]; not above 0.78 µg/mL against Staphylococcus aureus [37]; 50 µg/mL (≈ 117 µM) in the experiment on Staphylococcus aureus [38]; 25 µg/mL (≈ 58.5 µM) in the experiment on Staphylococcus aureus [39]; more than 100 µg/mL with Staphylococcus aureus [40]. In addition, the MIC against Staphylococcus aureus [41] came to 1.56 µg/mL (≈ 3.65 µM); against Staphylococcus aureus [42], 12.5 µg/mL (≈ 29.2 µM); against Staphylococcus aureus [43], 12.5 µg/mL (≈ 29.2 µM); in the experiment with Staphylococcus aureus [44], 100 µg/mL (≈ 234 µM); against Staphylococcus aureus [45], 12.5 µg/mL (≈ 29.2 µM).

Turning to `COc1cccc(OC)c1C(=O)N[C@@H]1C(=O)N2[C@@H]1SC(C)(C)[C@@H]2C(=O)O` [METHICILLIN], the MIC with Staphylococcus aureus [29] was 6.25 µg/mL (≈ 16.4 µM); in the experiment on Staphylococcus aureus [30], more than 100 µg/mL; with Staphylococcus aureus [46], 6.25 µg/mL (≈ 16.4 µM); against Staphylococcus aureus [31], 1.56 µg/mL (≈ 4.1 µM); against Staphylococcus aureus [32], more than 100 µg/mL; in the experiment on Staphylococcus aureus [33], 25 µg/mL (≈ 65.7 µM). For the same compound, the MIC was 25 µg/mL (≈ 65.7 µM) in the experiment with Staphylococcus aureus [34]; 50 µg/mL (≈ 131 µM) in the experiment on Staphylococcus aureus [35]; more than 100 µg/mL against Staphylococcus aureus [37]; 50 µg/mL (≈ 131 µM) with Staphylococcus aureus [38]; 50 µg/mL (≈ 131 µM) against Staphylococcus aureus [39]; more than 100 µg/mL with Staphylococcus aureus [40]. The MIC in the experiment on Staphylococcus aureus [41] is not above 0.78 µg/mL; in the experiment with Staphylococcus aureus [42], 6.25 µg/mL (≈ 16.4 µM); against Staphylococcus aureus [43] it was 3.12 µg/mL (≈ 8.2 µM); against Staphylococcus aureus [44], 50 µg/mL (≈ 131 µM); against Staphylococcus aureus [45], 6.25 µg/mL (≈ 16.4 µM).
